# Data published in ChEMBL document CHEMBL5236581, “A Versatile and Sustainable Multicomponent Platform for the Synthesis of Protein Degraders: Proof-of-Concept Application to BRD4-Degrading PROTACs” (J Med Chem, 2022).
# Activity calls are given as the source filed them. The rule behind the calls is not given here. Where a SMILES comes first, the peptide text is derived from it. [ ]: non-standard residue; d: D form. The star is where a group is joined. JQ1acid = Cc1sc2c(c1C)C(c1ccc(Cl)cc1)=N[C@@H](CC(=O)*)c1nnc(C)n1-2; NHBn(4-(4-Me-thiazol-5-yl)) = Cc1ncsc1-c1ccc(CN*)cc1; Hyp = O=C(O)[C@@H]1C[C@@H](O)CN1; Tle = CC(C)(C)[C@H](N)C(=O)O; Sar = CNCC(=O)O
# How the values were obtained:
# [1] = target: von Hippel-Lindau disease tumor suppressor/Bromodomain-containing protein 4 (Homo sapiens) (UniProt O60885+P40337); experiment: Protac activity at BRD4/VHL E3 ligase in human MDA-MB-231 cells assessed as decrease in BRD4 expression at 1 uM incubated for 4 to 24 hrs by Western blot analysis; assay type: cell-based; details: time lower 4.0 hrs, time upper […]
# [2] = Thermodynamic solubility of compound in phosphate buffer at pH 7.4 incubated for 2 hrs with shaking by LC-UV analysis; assay type: physicochemical; details: read-out: Therm_solubility
# [3] = Thermodynamic solubility of compound in HCL at pH 2 incubated for 2 hrs with shaking by LC-UV analysis; assay type: physicochemical; details: read-out: Therm_solubility
# von Hippel-Lindau disease tumor suppressor/Bromodomain-containing protein 4 (Homo sapiens), sequence (P40337 whole entry, looked up, other chains not shown): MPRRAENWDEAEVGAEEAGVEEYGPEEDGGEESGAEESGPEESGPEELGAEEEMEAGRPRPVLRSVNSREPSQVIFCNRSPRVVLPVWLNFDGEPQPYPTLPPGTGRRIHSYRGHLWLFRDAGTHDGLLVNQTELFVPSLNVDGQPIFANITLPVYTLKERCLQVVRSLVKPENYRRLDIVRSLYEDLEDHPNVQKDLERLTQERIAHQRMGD
Activity [1],solubility thermodynamic at 2 h [2],solubility thermodynamic at 2 h [3],Compound
inactive,,,Cc1ncsc1-c1ccc(CNC(=O)[C@@H]2C[C@@H](O)CN2C(=O)[C@@H](NC(=O)CCCNC(=O)CN2CCN(C(=O)C[C@@H]3N=C(c4ccc(Cl)cc4)c4c(sc(C)c4C)-n4c(C)nnc43)CC2)C(C)(C)C)cc1
inactive,,,Cc1ncsc1-c1ccc(CNC(=O)[C@@H]2C[C@@H](O)CN2C(=O)[C@@H](NC(=O)CNC(=O)CN(C)C(=O)C[C@@H]2N=C(c3ccc(Cl)cc3)c3c(sc(C)c3C)-n3c(C)nnc32)C(C)(C)C)cc1 (JQ1acid-[Sar]G[Tle][Hyp]-{NHBn(4-(4-Me-thiazol-5-yl))})
,60 µM,171 µM,Cc1sc2c(c1C)C(c1ccc(Cl)cc1)=N[C@@H](CC(=O)NCCCCNC(=O)COc1cccc3c1C(=O)N(C1CCC(=O)NC1=O)C3=O)c1nnc(C)n1-2 (stereo not given in full)
inactive,,,Cc1ncsc1-c1ccc(CNC(=O)[C@@H]2C[C@@H](O)CN2C(=O)[C@@H](NC(=O)CNC(=O)CN2CCN(C(=O)C[C@@H]3N=C(c4ccc(Cl)cc4)c4c(sc(C)c4C)-n4c(C)nnc43)CC2)C(C)(C)C)cc1
